Source: PMC3391414 (Journal of Agricultural and Food Chemistry, 2011)
Entries after “also recorded” stand apart in the source; their conditions may differ.

Molecular target: T1, UGT1A3 (Homo sapiens, UniProt P35503)
T1 sequence (P35503 29-534): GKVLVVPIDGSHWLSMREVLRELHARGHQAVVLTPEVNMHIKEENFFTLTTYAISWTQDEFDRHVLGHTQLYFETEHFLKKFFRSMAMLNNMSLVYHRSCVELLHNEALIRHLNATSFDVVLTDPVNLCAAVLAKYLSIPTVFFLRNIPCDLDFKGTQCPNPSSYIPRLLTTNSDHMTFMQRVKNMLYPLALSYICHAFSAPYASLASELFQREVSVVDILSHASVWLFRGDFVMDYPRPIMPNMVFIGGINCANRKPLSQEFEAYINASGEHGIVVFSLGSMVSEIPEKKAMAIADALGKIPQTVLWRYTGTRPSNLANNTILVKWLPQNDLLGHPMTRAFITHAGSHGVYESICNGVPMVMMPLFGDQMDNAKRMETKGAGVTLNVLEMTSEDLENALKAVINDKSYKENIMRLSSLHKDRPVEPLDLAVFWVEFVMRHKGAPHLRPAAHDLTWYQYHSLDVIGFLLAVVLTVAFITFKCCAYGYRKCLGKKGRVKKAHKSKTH
Test: Glucuronidation by recombinant human UGT1A3

Degree of regiospecificity (major glucuronide in bracket) (UGT1A3, substrate 2.5 μM): No (3-O, 7-O) | Degree of regiospecificity (major glucuronide in bracket) (UGT1A3, substrate 10 μM): No (3-O, 7-O) | Hydroxyl positions glucuronidated (UGT1A3, substrate 10 μM): glucuronidated 3-O, 7-O and 4’-O
SMILES: O=c1c(O)c(-c2ccc(O)cc2)oc2cc(O)cc(O)c12 [5,7,4'THFnol, 3,5,7,4’-tetrahydroxyflavone]
Degree of regiospecificity (major glucuronide in bracket) (UGT1A3, substrate 10 μM, listed as 5,7,4’THFnol): no regiospecific preference between 3-O and 7-O; also recorded: did not show dominant regiospecificity for 7-O position
